Data on 30 molecules can be found in patent publication US20120214822A1 (ASTRAZENECA AB, priority 2007, published 2012).

In this assay the target is human active recombinant p38α-6His tagged (Homo sapiens, UniProt Q16539). As to the kind of experiment: P38 Alpha Enzyme Assay (AlphaScreen, biotinylated-ATF2 substrate).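 Note: 0.5 nM final p38α, reaction started with ATP and run 45 min at 37 °C, phospho-ATF2 read by antibody-based AlphaScreen, background wells quenched with EDTA before ATP.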 The note with it: p38 alpha enzyme inhibition; means of replicate determinations; 4 h pre-incubation at 37° C.; SD of assay 0.2-0.3 log units. It counts as biochemical.
Chain of human active recombinant p38α-6His tagged (Q16539 whole entry): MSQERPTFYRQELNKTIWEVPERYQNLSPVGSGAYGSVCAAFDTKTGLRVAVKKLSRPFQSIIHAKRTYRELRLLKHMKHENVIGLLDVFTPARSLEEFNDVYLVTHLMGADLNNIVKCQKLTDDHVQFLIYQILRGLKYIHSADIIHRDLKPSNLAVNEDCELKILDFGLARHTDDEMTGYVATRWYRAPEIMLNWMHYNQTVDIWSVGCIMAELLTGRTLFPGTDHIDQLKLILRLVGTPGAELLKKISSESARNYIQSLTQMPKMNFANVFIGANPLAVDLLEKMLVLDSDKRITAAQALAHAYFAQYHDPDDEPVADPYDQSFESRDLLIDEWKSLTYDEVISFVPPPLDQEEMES

With `CSc1ccccc1CNc1nccn(-c2cc(C(=O)NC3CC3)ccc2C)c1=O` [Example 128, N-Cyclopropyl-4-methyl-3-[3-[[[2-(methylthio)phenyl]methyl]amino]-2-oxo-1(2H)-pyrazinyl]-benzamide], the pIC50 – broadly, the negative decadic logarithm of the IC50, by convention in mol/L – amounted to 8.2.
The same measure for `CNCCCOc1ccccc1C1CCCN1c1nccn(-c2cc(C(=O)NC3CC3)ccc2C)c1=O` (stereo not drawn) [Example 324, N-Cyclopropyl-4-methyl-3-[3-(2-{2-[3-(methylamino)propoxy]phenyl}pyrrolidin-1-yl)-2-oxopyrazin-1(2H)-yl]benzamide]: 8.1; for `Cc1ccc(C(=O)NC2CC2)cc1-n1ccnc(N[C@@H](c2ccccc2)[C@@H](C)CN2CCC[C@H](O)C2)c1=O` [Example 185, N-Cyclopropyl-3-[3-[[(1R,2S)-3-[(3S)-3-hydroxy-1-piperidinyl]-2-methyl-1-phenylpropyl]amino]-2-oxo-1(2H)-pyrazinyl]-4-methyl-benzamide]: 9.1; for `Cc1ccc(CNc2nccn(-c3cc(C(=O)NC4CC4)ccc3C)c2=O)cc1` [Example 42, N-Cyclopropyl-4-methyl-3-[3-[[(4-methylphenyl)methyl]amino]-2-oxo-1(2H)-pyrazinyl]-benzamide]: 6.4.
For the molecule `Cc1ccc(C(=O)NC2CC2)cc1-n1ccnc(NC(C)(C)c2ccccc2OC2CCNCC2)c1=O` [Example 219, N-Cyclopropyl-4-methyl-3-[3-[[1-methyl-1-[2-(4-piperidinyloxy)phenyl]ethyl]amino]-2-oxo-1(2H)-pyrazinyl]-benzamide], the pIC50 was found to be 9.3.
For `COCCNCCOc1ccccc1C1(Nc2nccn(-c3cc(C(=O)NC4CC4)cc(F)c3C)c2=O)CC1` [Example 261, N-Cyclopropyl-3-fluoro-5-[3-[[1-[2-[2-[(2-methoxyethyl)amino]ethoxy]phenyl]cyclopropyl]amino]-2-oxo-1(2H)-pyrazinyl]-4-methyl-benzamide] the value was 10.5.
For `COC[C@@H]1CCCN1C[C@@H](C)[C@@H](Nc1nccn(-c2cc(C(=O)NC3CC3)ccc2C)c1=O)c1ccccc1` [Example 150, N-Cyclopropyl-3-[3-[[(1R,2R)-3-[(2S)-2-(methoxymethyl)-1-pyrrolidinyl]-2-methyl-1-phenylpropyl]amino]-2-oxo-1(2H)-pyrazinyl]-4-methyl-benzamide] the value was 7.9; for `Cc1c(F)cc(C(=O)NC2CC2)cc1-n1ccnc(NC2(c3ccccc3OCCNC[C@@H](C)O)CC2)c1=O` [Example 265, N-Cyclopropyl-3-fluoro-5-[3-[[1-[2-[2-[[(2R)-2-hydroxypropyl]amino]ethoxy]phenyl]cyclopropyl]amino]-2-oxo-1(2H)-pyrazinyl]-4-methyl-benzamide], 9.7.
The same measure for `Cc1c(F)cc(C(=O)NC2CC2)cc1-n1ccnc(NC2(c3ccccc3OCCN(C)CCO)CC2)c1=O` [Example 315, N-Cyclopropyl-3-fluoro-5-[3-{[1-(2-{2-[(2-hydroxyethyl)(methyl)amino]ethoxy}phenyl)cyclopropyl]amino}-2-oxopyrazin-1(2H)-yl]-4-methylbenzamide]: 10; for `CCNCCOc1ccccc1C1(Nc2nccn(-c3cc(C(=O)NC4CC4)c(F)cc3C)c2=O)CC1` [Example 318, N-cyclopropyl-5-{3-[(1-{2-[2-(ethylamino)ethoxy]phenyl}cyclopropyl)amino]-2-oxopyrazin-1(2H)-yl}-2-fluoro-4-methylbenzamide]: 8.2.
With `Cc1ccc(C(=O)NC2CC2)cc1-n1ccnc(NCc2ccc3c(c2)OCO3)c1=O` [Example 32, 3-[3-[(1,3-Benzodioxol-5-ylmethyl)amino]-2-oxo-1(2H)-pyrazinyl]-N-cyclopropyl-4-methyl-benzamide], the negative logarithm of the IC50 (pIC50) is listed as 6.8.
Consider `Cc1c(F)cc(C(=O)NC2CC2)cc1-n1ccnc(NC(C)(C)c2ccccc2OCCNC[C@@H](C)O)c1=O` [Example 256, N-Cyclopropyl-3-fluoro-5-[3-[[1-[2-[2-[[(2R)-2-hydroxypropyl]amino]ethoxy]phenyl]-1-methylethyl]amino]-2-oxo-1(2H)-pyrazinyl]-4-methyl-benzamide], for which the negative-log IC50 (pIC50) came to 10.5.
For the molecule `Cc1ccc(C(=O)NC2CC2)cc1-n1ccnc(NCc2cccc3c2OCCO3)c1=O` [Example 91, N-Cyclopropyl-3-[3-[[(2,3-dihydro-1,4-benzodioxin-5-yl)methyl]amino]-2-oxo-1(2H)-pyrazinyl]-4-methyl-benzamide], the negative logarithm of the IC50 (pIC50) came to 7.9.
As to `Cc1ccc(C(=O)NC2CC2)cc1-n1ccnc(N[C@@H](c2ccccc2)[C@@H](C)CNCC(C)(C)C)c1=O` [Example 157, N-Cyclopropyl-3-[3-[[(1R,2S)-3-[(2,2-dimethylpropyl)amino]-2-methyl-1-phenylpropyl]amino]-2-oxo-1(2H)-pyrazinyl]-4-methyl-benzamide], the pIC50 was 9.
As for `Cc1ccc(C(=O)NC2CC2)cc1-n1ccnc(NC(C)(C)c2ccccc2OCCCCN2CCN(C)CC2)c1=O` [Example 206, N-Cyclopropyl-4-methyl-3-[3-[[1-methyl-1-[2-[4-(4-methyl-1-piperazinyl)butoxy]phenyl]ethyl]amino]-2-oxo-1(2H)-pyrazinyl]-benzamide], the pIC50 is recorded as 9.3.
`Cc1ccc(C(=O)NC2CC2)cc1-n1ccnc(N[C@@H](c2ccccc2)[C@@H](C)CNCCN(C)C)c1=O` [Example 155, N-Cyclopropyl-3-[3-[[(1R,2S)-3-[[2-(dimethylamino)ethyl]amino]-2-methyl-1-phenylpropyl]amino]-2-oxo-1(2H)-pyrazinyl]-4-methyl-benzamide]: the pIC50 was determined as 9.1.
Regarding `C[C@@H](O)CNCCOc1ccccc1C(C)(C)Nc1nccn(-c2cc(C(=O)NC3CC3)ccc2Cl)c1=O` [Example 332, 4-Chloro-N-cyclopropyl-3-[3-({1-[2-(2-{[(2R)-2-hydroxypropyl]amino}ethoxy)phenyl]-1-methylethyl}amino)-2-oxopyrazin-1(2H)-yl]benzamide], the pIC50 is reported as 9.7.
For `CCNCCOc1ccccc1C1(Nc2nccn(-c3cc(C(=O)NC4CC4)cc(F)c3C)c2=O)CC1` [Example 262, N-Cyclopropyl-3-[3-[[1-[2-[2-(ethylamino)ethoxy]phenyl]cyclopropyl]amino]-2-oxo-1(2H)-pyrazinyl]-5-fluoro-4-methyl-benzamide], the pIC50 is on record as 10.2.
For the molecule `Cc1ccc(C(=O)NC2CC2)cc1-n1ccnc(NCC(c2ccccc2)N(C)C)c1=O` (stereo not drawn) [Example 61, N-Cyclopropyl-3-[3-[[2-(dimethylamino)-2-phenylethyl]amino]-2-oxo-1(2H)-pyrazinyl]-4-methyl-benzamide], the pIC50 stood at 6.3.
The same measure for `Cc1ccc(C(=O)NC2CC2)cc1-n1ccnc(N2CCCC2Cc2ccccc2F)c1=O` (stereo not drawn) [Example 75, N-Cyclopropyl-3-[3-[2-[(2-fluorophenyl)methyl]-1-pyrrolidinyl]-2-oxo-1(2H)-pyrazinyl]-4-methyl-benzamide]: 7.1; for `CCNCCOc1ccccc1C(C)(C)Nc1nccn(-c2cc(C(=O)NC3CC3)ccc2CC)c1=O` [Example 290, N-Cyclopropyl-4-ethyl-3-{3-[(1-{2-[2-(ethylamino)ethoxy]phenyl}-1-methylethyl)amino]-2-oxopyrazin-1(2H)-yl}benzamide]: 8.5; for `CONC(=O)c1ccc(C)c(-n2ccnc(C3CCCC3)c2=O)c1` [Example 127, 3-(3-cyclopentyl-2-oxo-1(2H)-pyrazinyl)-N-methoxy-4-methyl-benzamide]: 7.3.
For `Cc1ccc(C(=O)NC2CC2)cc1-n1ccnc(NC2(c3ccccc3OCCN3CCCC3)CC2)c1=O` [Example 238, N-Cyclopropyl-4-methyl-3-[2-oxo-3-[[1-[2-[2-(1-pyrrolidinyl)ethoxy]phenyl]cyclopropyl]amino]-1(2H)-pyrazinyl]-benzamide] the value was 9.7; for `Cc1ccc(C(=O)NC2CC2)cc1-n1ccnc(NCC(c2ccccc2)N2CCCC2)c1=O` (stereo not drawn) [Example 63, N-Cyclopropyl-4-methyl-3-[2-oxo-3-[[2-phenyl-2-(1-pyrrolidinyl)ethyl]amino]-1(2H)-pyrazinyl]-benzamide], 6.3; for `Cc1cccc(CCNc2nccn(-c3cc(C(=O)NC4CC4)ccc3C)c2=O)c1` [Example 73, N-Cyclopropyl-4-methyl-3-[3-[[2-(3-methylphenyl)ethyl]amino]-2-oxo-1(2H)-pyrazinyl]-benzamide], 7.1.
On to `CNCCOc1ccccc1C(C)(C)Nc1nccn(-c2cc(C(=O)NCC(C)C)ccc2C)c1=O` [Example 226, 4-Methyl-3-[3-[[1-methyl-1-[2-[2-(methylamino)ethoxy]phenyl]ethyl]amino]-2-oxo-1(2H)-pyrazinyl]-N-(2-methylpropyl)-benzamide], for which the negative-log IC50 (pIC50) was 6.6.
On to `Cc1ccc(C(=O)NC2CC2)cc1-n1ccnc(N2CCCC(c3ccc(OCCN4CCCC4)cc3)C2)c1=O` (stereo not drawn) [Example 59, N-Cyclopropyl-4-methyl-3-[2-oxo-3-[3-[4-[2-(1-pyrrolidinyl)ethoxy]phenyl]-1-piperidinyl]-1(2H)-pyrazinyl]-benzamide], for which the pIC50 is 7.2.
As to `Cc1ccc(C(=O)NC2CC2)cc1-n1cc(Cl)nc(NCc2ccccc2)c1=O` [Example 109, 3-[5-Chloro-2-oxo-3-[(phenylmethyl)amino]-1(2H)-pyrazinyl]-N-cyclopropyl-4-methyl-benzamide], the negative logarithm of the IC50 (pIC50) came out at 7.2.
As for `Cc1ccc(C(=O)NC2CC2)cc1-n1ccnc(NC(C)(C)c2ccccc2OCCNCCO)c1=O` [Example 211, N-Cyclopropyl-3-[3-[[1-[2-[2-[(2-hydroxyethyl)amino]ethoxy]phenyl]-1-methylethyl]amino]-2-oxo-1(2H)-pyrazinyl]-4-methyl-benzamide], the pIC50 amounted to 9.6.
The same measure for `Cc1ccc(C(=O)NC2CC2)cc1-n1ccnc(N[C@@H](c2ccccc2)[C@@H](C)CN2CCN(C(C)C)CC2)c1=O` [Example 171, N-Cyclopropyl-4-methyl-3-[3-[[(1R,2S)-2-methyl-3-[4-(1-methylethyl)-1-piperazinyl]-1-phenylpropyl]amino]-2-oxo-1(2H)-pyrazinyl]-benzamide]: 8.8.
